Read-outs that look alike come from different tables or passages of the source.

In general, melting point refers to the temperature of the solid-liquid transition.

The subject of one series is Kochia (Kochia scoparia). The experiment in a line: Test A preemergence. Format: in vivo. The following applies: Bassia scoparia, pre-emergence, 240 h; for pest or weed control at 125 g/ha: 125 g ai/ha. An outline of the steps: (§1)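 Visual injury scores from 0, no effect, to 100, complete control, were assigned versus untreated controls roughly 10 d after treatment in the greenhouse. Test chemicals, formulated with surfactant in a non-phytotoxic solvent, were applied to planted seeds as a preemergence soil spray or postemergence to one- to two-leaf plants 2 to 10 cm tall, in loam–sand soil.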

The test system of series [1] is barnyardgrass (Echinochloa crus-galli). As to the kind of experiment: Test A preemergence. Format: in vivo. To be noted: Echinochloa crus-galli, pre-emergence, 240 h; for pest or weed control at 125 g/ha: 125 g ai/ha; for pest or weed control at 500 g/ha: 500 g ai/ha. In short, it runs like this: as §1
The test system of series [2] is giant foxtail (Setaria faberii). The experiment in a line: Test A preemergence. The following applies: Setaria faberi, pre-emergence, 240 h; for pest or weed control at 125 g/ha: 125 g ai/ha; for pest or weed control at 500 g/ha: 500 g ai/ha. Format: in vivo. An outline of the steps:
as §1

Series [3] concerns pigweed (Amaranthus retroflexus). As to the kind of experiment: Test A preemergence. The class given is in vivo. To be noted: Amaranthus retroflexus, pre-emergence, 240 h; for pest or weed control at 125 g/ha: 125 g ai/ha; for pest or weed control at 500 g/ha: 500 g ai/ha.
The subject of series [4] is ragweed (common ragweed, Ambrosia elatior). The experiment in a line: Test A preemergence. To be noted: Ambrosia artemisiifolia, pre-emergence, 240 h; for pest or weed control at 125 g/ha: 125 g ai/ha; for pest or weed control at 500 g/ha: 500 g ai/ha. Format: in vivo. In short, it runs like this:
as §1

Series [5] deals with ryegrass, Italian (Italian ryegrass, Lolium multiflorum). The experiment in a line: Test A preemergence. The class given is in vivo. The following applies: Lolium multiflorum, pre-emergence, 240 h; for pest or weed control at 125 g/ha: 125 g ai/ha; for pest or weed control at 500 g/ha: 500 g ai/ha. In short, it runs like this: as §1

`Cc1ccccc1NC(=O)[C@H]1C(=O)N(C)C[C@@H]1c1ccc(C(F)(F)F)cc1` [Compound 1239] came in with a melting point of 123 to 127 °C. For the same molecule, the pest or weed control at 125 g/ha with Kochia (Kochia scoparia) (preemergence, visual injury rating, 0 to 100 scale where 0 is no effect and 100 is complete control, approximately 10 d, read-out: Kochia plant response rating) worked out at 90%. The pest or weed control at 125 g/ha in series [1] (preemergence, visual injury rating, 0 to 100 scale where 0 is no effect and 100 is complete control, approximately 10 d, read-out: Barnyardgrass plant response rating) is 80%. For the same molecule, the pest or weed control at 500 g/ha in series [1] (preemergence, 0 to 100 scale where 0 is no effect and 100 is complete control, read-out: Barnyardgrass plant response rating) was found to be 90%. Besides, the pest or weed control at 125 g/ha in series [2] (preemergence, visual injury rating, 0 to 100 scale where 0 is no effect and 100 is complete control, approximately 10 d, read-out: Foxtail, Giant plant response rating) came out at 90%. The pest or weed control at 500 g/ha in series [2] (preemergence, 0 to 100 scale where 0 is no effect and 100 is complete control, read-out: Foxtail, Giant plant response rating) came to 90%. Also, the pest or weed control at 125 g/ha in series [3] (preemergence, visual injury rating, 0 to 100 scale where 0 is no effect and 100 is complete control, approximately 10 d, read-out: Pigweed plant response rating) is 20%. For the same molecule, in series [3] (preemergence, 0 to 100 scale where 0 is no effect and 100 is complete control, read-out: Pigweed plant response rating), the pest or weed control at 500 g/ha came to 60%. Moreover, in series [4] (preemergence, visual injury rating, 0 to 100 scale where 0 is no effect and 100 is complete control, approximately 10 d, read-out: Ragweed plant response rating), the pest or weed control at 125 g/ha is 0%. Moreover, the pest or weed control at 500 g/ha in series [4] (preemergence, 0 to 100 scale where 0 is no effect and 100 is complete control, read-out: Ragweed plant response rating) was 70%. In series [5] (preemergence, visual injury rating, 0 to 100 scale where 0 is no effect and 100 is complete control, approximately 10 d, read-out: Ryegrass, Italian plant response rating), the pest or weed control at 125 g/ha came to 50%. Also, the pest or weed control at 500 g/ha in series [5] (preemergence, 0 to 100 scale where 0 is no effect and 100 is complete control, read-out: Ryegrass, Italian plant response rating) was found to be 50%.

`O=C1NC[C@H](c2cccc(C(F)(F)F)n2)[C@H]1C(=O)Nc1cccc(F)c1F` [Compound 1385] displayed a melting point of 139 to 142 °C. In addition, the pest or weed control at 500 g/ha with Kochia (Kochia scoparia) (500 g ai/ha, preemergence, 0 to 100 scale (0 no effect, 100 complete control), read-out: Plant response rating, Kochia) came to 20%. The pest or weed control at 125 g/ha with Kochia (Kochia scoparia) (Preemergence, 0 to 100 scale (0 no effect, 100 complete control), read-out: Plant response rating, Kochia) worked out at 0%. Besides, the pest or weed control at 500 g/ha in series [1] (preemergence, 0 to 100 scale (0 no effect, 100 complete control), read-out: Plant response rating, Barnyardgrass) turned out to be 90%. In series [1] (Preemergence, 0 to 100 scale (0 no effect, 100 complete control), read-out: Plant response rating, Barnyardgrass), the pest or weed control at 125 g/ha worked out at 90%. In addition, in series [2] (preemergence, 0 to 100 scale (0 no effect, 100 complete control), read-out: Plant response rating, Foxtail, Giant), the pest or weed control at 500 g/ha was determined as 90%. Also, in series [2] (Preemergence, 0 to 100 scale (0 no effect, 100 complete control), read-out: Plant response rating, Foxtail, Giant), the pest or weed control at 125 g/ha was determined as 90%. Further, the pest or weed control at 500 g/ha in series [3] (preemergence, 0 to 100 scale (0 no effect, 100 complete control), read-out: Plant response rating, Pigweed) was 0%. Moreover, in series [3] (Preemergence, 0 to 100 scale (0 no effect, 100 complete control), read-out: Plant response rating, Pigweed), the pest or weed control at 125 g/ha turned out to be 0%. Besides, the pest or weed control at 500 g/ha in series [4] (preemergence, 0 to 100 scale (0 no effect, 100 complete control), read-out: Plant response rating, Ragweed) was determined as 0%. Also, in series [4] (Preemergence, 0 to 100 scale (0 no effect, 100 complete control), read-out: Plant response rating, Ragweed), the pest or weed control at 125 g/ha was 0%. Moreover, the pest or weed control at 500 g/ha in series [5] (preemergence, 0 to 100 scale (0 no effect, 100 complete control), read-out: Plant response rating, Ryegrass, Italian) was 0%. In series [5] (Preemergence, 0 to 100 scale (0 no effect, 100 complete control), read-out: Plant response rating, Ryegrass, Italian), the pest or weed control at 125 g/ha was 0%.

Values taken from US12077503B2, “Substituted cyclic amides and their use as herbicides” (FMC CORPORATION, priority 2015, dated 2024).
